Assays:
[1] = In vitro percutaneous absorption (skin permeation) of saturated solutions, modified Franz cell; type: in vitro ADME, human; conditions: dissolved in IPM/Pharmasolve 80:20 (v/v), compared with control solution
Description: For all experiments (one run with 9 cells) skin from one patient was used. The skin was excised full skin from surgery of the thigh, cleaned from adhering fat tissue, stored at −18° C. prior to use but not for longer than 6 months.
In vitro skin permeation investigation was performed as described in this Example.
The flux was calculated for every formulation by means of linear regression (performance with Excel software; regression coefficient to be >0.98) from the mean cumulative permeated amounts in μg/cm^2 during steady state against the time in hours. For test solution #1 the linear regression was calculated from 12-48 hours (not until 72 hours, because after 48 hours the permeation was decreasing). […] The lag-time (which was the time when steady state of permeation was starting after application) was taken from the intersection of the regression line with the time axis.
The transdermal delivery rate was assumed to be the same in vivo as it is in vitro (this must, of course, be proven by further kinetic studies). The patch size was set to 20 cm^2, which is middle sized (small patches are 5 cm^2; big patches are 60 cm^2) and the delivery rate was calculated daily (1 day=24 hours).
(flux rate steady state [μg/cm^2/h]×20 [cm^2]×24[h])/1000=delivery rate [mg/20 cm^2/24 h].

Female land race pigs = experiment: In vivo pig urodynamic model (urodynamic and cardiovascular parameters)
Description: The animal model employed in this study was a slight modification of the previously described pig in vivo urodynamic model by Mills (1999). Surgical procedures were performed by Home Office personal licence holders. Female land race pigs of about 60 kg in weight were used for this study.
Pigs were initially sedated with ketamine hydrochloride 15 mg/kg (ketaset, Willows Francis Veterinary, Crawley, UK) and midazolam 0.2 mg/kg (Hypnovel, Roche Products Ltd, Welwyn Garden City, UK) through an intravenous central line. […] The induction phase of general anaesthesia was accomplished with 5% halothane (Fluothane, Astra ZenecaLtd, Macclesfield UK) in nitrous oxide 50%/oxygen 50%, delivered from an anaesthetic machine through a conical mask which was held over the snout of the pig. Following the induction phase, the maintenance phase of general anaesthesia was achieved using intravenous 1% propofol at the rate of 200 mg/hr.
At the start of surgery, the pig was initially placed in the left lateral position allowing access to the lumbar dorsal region. A stab incision for each catheter was made in the lumbar dorsal midline, as well as a single small right iliac fossa incision. Using a specially designed trocar, the peritoneal catheter and the proximal portions of the vesical catheters were tunneled from the dorsal lumbar incision to the right iliac fossa, such that the cuff at the proximal end finished in a small subcutaneous pocket. Each incision was approximated with two interrupted 2/0 nylon sutures, taking care to avoid occlusion of the catheters. The pig was then turned into a supine position and a lower abdominal incision made. Using a Spencer-Well forceps, the peritoneum and abdominal wall muscles were pierced from inside out and three catheters grabbed and pulled into the peritoneal cavity. The longer peritoneal catheter was placed in the vesico-vaginal pouch. Two purse-string sutures of 2/0 silk were placed in the apex of the bladder, and stab incisions made through the centre of each of these. The distal shorter halves of the vesical lines were introduced into the bladder through these incisions and the purse-strings tied, ensuring that the lumen of each catheter remained patent. Each side of the small pieces of silastic sheet on these catheters was sutured to the serosa of the bladder, in order to provide further security against subsequent line displacement. These distal portions of the two vesical catheters were then connected to the proximal portions using the nylon connectors. The abdominal wound was closed en masse with 1 nylon, followed by 2/0 chromic catgut to fat and interrupted 2/0 nylon to the skin. The right iliac fossa wound was closed in layers with vicryl to internal oblique and external oblique and interrupted 2/0 nylon to the skin. One of the vesical lines was attached to another piece of tubing externally and left on free drainage for 48 hours to allow the bladder to heal.
Following induction of anaesthesia, the animal was placed in a supine position and covered with a warm water blanket to maintain body temperature. A small incision was then made in the left groin area through which the left femoral artery was identified by palpation. The artery was then cannulated with an arterial […] cannulae (Abbocath-T, Abbott Ireland, and Sligo, Ireland) which was then connected to a pressure transducer for the measurement of arterial pressure. Vesico-urethral junction cystometry was obtained using a catheter mounted with a microtranducer (Gaeltec LTD, Isle of Skye). To cannulate the urethra, the vagina was opened with a speculum to expose the external urethral orifice which is high up in the anterior wall of the vagina. Having identified the external orifice the catheter was then inserted into the urethra by direct vision, thereafter it was gradually withdrawn until it was positioned in the vesico-urethral junction. […]

[2] = 1 mg/kg iv bolus, mean of three voiding cycles

enhancement factor for percutaneous absorption [1]: 13.84
Structure (SMILES): COc1ccc(OC)c([C@@H](O)[C@H](C)NC(=O)CC[C@H](N)C(=O)O)c1 [compound of formula (Ia), (S)-2-Amino-4-[(1S,2R)-2-(2,5-dimethoxyphenyl)-2-hydroxy-1-methyl-ethylcarbamoyl]butyric acid]
VUJ threshold pressure, greater than control runs (Female land race pigs; 1 mg/kg iv): about 31% | duration of voiding, change from control (Female land race pigs; 1 mg/kg iv): 4.1% | fall in deutrusor voiding pressure from the control runs (Female land race pigs; 1 mg/kg iv): 36.5% | flow rate, change from control (Female land race pigs; 1 mg/kg iv): 2.4% | voiding intervals, change from control (Female land race pigs; 1 mg/kg iv): −4.7% | deutrusor voiding pressure (Female land race pigs; [2]): 28±10.11 cmH2O | intravesical threshold voiding pressure (Female land race pigs; [2]): 16.23±1.16 cmH2O | voiding pressure during the voiding phase (Female land race pigs; [2]): 41.1±8.3 cmH2O | bladder intravesical baseline pressure (Female land race pigs; 1 mg/kg iv bolus, mean of three voiding cycles, one animal): 8.53±0.34 cmH2O | reduction in residual volume (Female land race pigs; 1 mg/kg iv, versus control): 31% | rise in the threshold VUJ voiding pressure (Female land race pigs; 1 mg/kg iv, versus control): 15% | VUJ baseline pressure (Female land race pigs; 1 mg/kg iv, versus control runs): transient rise | arterial pressure, change from the control (Female land race pigs; 1 mg/kg iv, arterial line flushed after dosing): 15% | voiding efficiency (Female land race pigs; 1 mg/kg iv, voided volume as percentage of bladder capacity): 95%

Source: patent US20080090916A1, “Compounds for Treating Urinary Incontinence” (priority 2005, published 2008)
